Experiments:
left atrial muscle = assay: Test Method 1: enhancement of contracting force of left atrial muscle extirpated from a guinea pig (electrically stimulated at 1 Hz); format: cell-based; details: Cavia porcellus, Krebs-Henseleit solution 32° C.; for EC20: read-out: EC20 (molar concentration for enhancing the left atrial muscle contracting force to the level of 20%); for EC50: read-out: EC50 (molar concentration for enhancing the left atrial muscle contracting force to the level of 50%); for EC100: read-out: EC100 (molar concentration for enhancing the left atrial muscle contracting force to the level of 100%)
Description: (§1) The drug according to the present invention was evaluated with reference to the physiological activities by means of a method using an atrial muscle extirpated from a guinea pig.
(§2) Male guinea pigs having a body weight of 300-500 g were made swooned by striking his head and were bleeded to death. The heart was extirpated and the right and left atrial muscles were cut off. The tops of each atrial muscle were fixed with cerrefines. The muscle was suspended into an organ-bath in which a Krebs-Henseleit solution (at 32° C.) was filled, and a 95% O2 -5% CO2 gas was flown through the bath. The left atrial muscle was stimulated electrically at a frequency of 1 Hz to stabilize the contracting force of the left atrial muscle. Then, the compounds according to the present invention represented by the general formulae were added to the organ-bath. As for the right atrial muscle, after the pulsation was stabilized, the compounds according to the present invention were added in the organ-bath in the same manner as described above.
(§3) The compounds according to the present invention represented by the aforementioned general formulae enhanced the left atrial muscle contracting force dependent on their concentrations. The drug concentrations for enhancing the left atrial muscle contracting force to the levels of 20%, 50% and 100%, respectively are listed in Table 2. EC20, EC50 and EC100 indicate the molar concentration for enhancing the left atrial muscle contracting force to the levels of 20%, 50% and 100%, respectively. The enhancing rates of the pulsation of the right atrial muscle are also listed within parentheses. The minus values in parentheses indicate that the pulsation of the right atrial muscle is decreased.
(§4) As a control drug, theophylline ([…].

heart muscle = assay: Test Method 2: effect on heart muscle contracting force in an anesthetized dog (LV-dP/dtmax); format: in vivo; details: anesthetized Beagle dogs, 1 mg/kg through a cannula inserted into vein; increasing rate, value at initiation set as 100%
Description: The compounds according to the present invention was evaluated with reference to the effect on heart muscle contracting force by means of a method using an anesthetized dog.
Beagle dogs having a body weight of 8-11 kg were used for the experiment. They were anesthetized by intraperitoneal administration of a sodium salt of pentobarbital (35 mg/kg) and, if necessary, of additional small amount of the sodium salt of pentobarbital. Anesthesia was maintained by administering the sodium salt of pentobarbital in a dose of 5 mg/kg/hour through a cannula inserted within a vein. Breathing was performed through a cannula inserted within a trachea with a respirator. The maximum accelerations of contracting the […] (LV-dp/dtmax) were measured with a pressure transducer inserted into the left ventricle. Compounds tested was administered in a dose of 1 mg/kg through a cannula inserted into the other vein. The parameters were expressed as the increasing rate (Δ%) after dosing of the drug with the value at the initiation when the drug was administered being set as 100%.

right atrial muscle = assay: Test Method 1: enhancing rate of the pulsation of the right atrial muscle extirpated from a guinea pig; format: cell-based; details: for enhancing rate of the pulsation of the right atrial muscle (in parentheses under EC20) / enhancing rate of the pulsation of the right atrial muscle (in parentheses under EC50) / enhancing rate of the pulsation of the right atrial muscle (in parentheses under EC100): minus values: pulsation is decreased
Description: as §1, §2, §3, §4

| SMILES | EC50 (left atrial muscle) | enhancing rate of the pulsation of the right atrial muscle (in parentheses under EC50) (right atrial muscle) | EC20 (left atrial muscle) | ΔLV-dP/dtmax (%) (heart muscle) | enhancing rate of the pulsation of the right atrial muscle (in parentheses under EC20) (right atrial muscle) | effect on heart rate (in words) (right atrial muscle; from the results of Table 2) | EC100 (left atrial muscle) | enhancing rate of the pulsation of the right atrial muscle (in parentheses under EC100) (right atrial muscle) |
| --- | --- | --- | --- | --- | --- | --- | --- | --- |
| Cn1c(=O)c2[nH]cnc2n(C)c1=O [Theophylline, theophylline, reference compound] | 302 µM | 20.0% | 72.4 µM | 18.8% | 7.3% | increased significantly |  |  |
| COc1cc2c(=O)cc[nH]c2cc1OC(C)C [Compound 51, 7-i-propoxy-6-methoxy-4(1H)-quinolone] | 70.8 µM | 16.8% | 20 µM | 41.2% | 6.2% |  | 1000 µM | 16.5% |
| COc1cc(C)c2[nH]ccc(=O)c2c1 [Compound 20, 6-methoxy-8-methyl-4(1H)-quinolone] | 58.9 µM | 1.8% | 12.4 µM | 41.7% | 0.2% |  | 299 µM | 5.6% |
| COc1cc2c(=O)ccn(C)c2cc1OC [Compound 13, 6,7-dimethoxy-1-methyl-4(1H)-quinolone] | 88.1 µM | 1.2% | 12.5 µM |  | 0.1% |  | 447 µM | 4.0% |
| COc1ccc2c(=O)cc[nH]c2c1O [Compound 3, 8-hydroxy-7-methoxy-4(1H)-quinolone] | 977 µM | 2.0% | 708 µM |  | 0.8% |  |  |  |
| CCOc1cc2c(=O)ccn(CC)c2cc1OC [Compound 49, 6-ethoxy-1-ethyl-7-methoxy-4(1H)-quinolone] | 62.4 µM | -1.0% | 16.8 µM |  | -2.5% |  | 229 µM | 10.2% |
| COc1c(O)ccc2[nH]ccc(=O)c12 [Compound 2, 6-hydroxy-5-methoxy-4(1H)-quinolone] | 871 µM | 2.2% | 490 µM |  | 0.6% |  |  |  |
| CCOC(=O)c1cn(CC)c2cc(OCC)c(OC)cc2c1=O [Compound 34, 7-ethoxy-3-ethoxycarbonyl-1-ethyl-6-methoxy-4(1H)-quinolone] | 100 µM | -8.5% | 6.46 µM |  | -3.2% |  |  |  |
| COc1ccc(OC)c(/C=C/c2ccc3[nH]ccc(=O)c3c2)c1 [Compound 46, 6-[2-trans-(2,5-dimethoxyphenyl)vinyl]-4(1H)-quinolone] | 162 µM | 3.5% | 45.7 µM |  | -1.0% |  |  |  |
| COC(=O)c1cn(C)c2cc(OC)c(OC)cc2c1=O [Compound 32, 6,7-dimethoxy-3-methoxycarbonyl-1-methyl-4(1H)-quinolone] | 85.1 µM | 0.3% | 40.7 µM |  | 0.1% |  | 282 µM | 0.4% |
| COc1cc(OCc2ccccc2)cc2c(=O)cc[nH]c12 [Compound 26, 6-benzyloxy-8-methoxy-4(1H)-quinolone] | 63 µM | 5.5% | 6.38 µM |  | 0.1% |  | 305 µM | 8.7% |
| COc1ccc2[nH]ccc(=O)c2c1O [Compound 1, 5-hydroxy-6-methoxy-4(1H)-quinolone] | 398 µM | 3.6% | 199 µM |  | 1.2% |  | 708 µM | 6.8% |
| CCOC(=O)c1c[nH]c2c(OC)ccc(-c3ccccc3)c2c1=O [Compound 37, 3-ethoxycarbonyl-8-methoxy-5-phenyl-4(1H)-quinolone] | 7.5 µM | -2.2% | 1.58 µM |  | -1.3% |  | 37.2 µM | -5.0% |

Second part, led by results:

| EC50 (left atrial muscle) | enhancing rate of the pulsation of the right atrial muscle (in parentheses under EC50) (right atrial muscle) | SMILES | EC20 (left atrial muscle) | ΔLV-dP/dtmax (%) (heart muscle) | enhancing rate of the pulsation of the right atrial muscle (in parentheses under EC20) (right atrial muscle) | effect on heart rate (in words) (right atrial muscle; from the results of Table 2) | EC100 (left atrial muscle) | enhancing rate of the pulsation of the right atrial muscle (in parentheses under EC100) (right atrial muscle) |
| --- | --- | --- | --- | --- | --- | --- | --- | --- |
| 36.7 µM |  | CCOc1cc2[nH]c(C3CC3)cc(=O)c2cc1OC [Compound 98, 2-cyclopropyl-7-ethoxy-6-methoxy-4(1H)-quinolone] | 5.96 µM | 57.1% |  |  |  |  |
| 18.2 µM | 16.3% | COc1cc2[nH]c(C3CC3)cc(=O)c2cc1OC [Compound 95, 2-cyclopropyl-6,7-dimethoxy-4(1H)-quinolone] | 1.78 µM | 46.9% | 2.8% |  | 94.4 µM |  |
| 30 µM |  | CCOc1cc2[nH]ccc(=O)c2cc1OC [Compound 62, 7-ethoxy-6-methoxy-4(1H)-quinolone] | 4.52 µM | 60.0% |  |  | 75 µM |  |
| 34.3 µM | 0.5% | C=CCn1c(C2CC2)cc(=O)c2cc(OC)c(OCC)cc21 [Compound 103, 1-allyl-2-cyclopropyl-7-ethoxy-6-methoxy-4(1H)-quinolone] | 3 µM |  | -2.0% |  | 162 µM | 1.2% |
| 57.5 µM | -15.0% | CCOC(=O)c1cn(CC)c2c(C)c(C)ccc2c1=O [Compound 81, 7,8-dimethyl-3-ethoxycarbonyl-1-ethyl-4(1H)-quinolone] | 35.5 µM |  | -10.5% |  |  |  |
| 68.4 µM | -2.7% | CCn1ccc(=O)c2cc(C)ccc21 [Compound 59, 1-ethyl-6-methyl-4(1H)-quinolone] | 12.3 µM |  | -2.0% |  | 279 µM | -3.0% |
| 9.77 µM | -0.8% | CCOC(=O)c1cn(CC)c2ccc(CC)cc2c1=O [Compound 85, 1,6-diethyl-3-ethoxycarbonyl-4(1H)-quinolone] | 1.58 µM | 25.0% | -1.2% |  |  |  |
| 100 µM | -19.5% | COc1cccc2c(=O)c(C(=O)N3CCN(Cc4ccc5c(c4)OCO5)CC3)cn(C)c12 [Compound 107, 8-methoxy-1-methyl-3-{1-[4-(3,4-methylenedioxybenzyl)-piperazinyl]carbonyl}-4(1H)-quinolone] | 16.2 µM |  | -6.6% |  |  |  |

— patent US5081121A, “4(1H)-quinolone derivatives” (priority 1988, dated 1992)
